The record followed here is US8895313B2, “Ligands for aggregated tau molecules” (Wista Laboratories Ltd., priority 2008, dated 2014).

Some results are limits rather than exact numbers.

PHF (paired helical filaments) isolated from the brain of an Alzheimer's disease patient, sequence (P10636 623-708 limits assumed): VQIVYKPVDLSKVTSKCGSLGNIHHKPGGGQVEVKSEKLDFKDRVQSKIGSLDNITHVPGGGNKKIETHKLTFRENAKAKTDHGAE

One experiment has as its target PHF (paired helical filaments) isolated from the brain of an Alzheimer's disease patient (Homo sapiens, UniProt P10636). The experiment can be described thus: Competitive binding assay: displacement of primulin fluorescence from PHFs. Further details: key to P50: fl indicates that the compound is fluorescent. Consequently, binding levels for the compound in the competition binding assay cannot be determined by fluorescent spectroscopy. Particulars: compound fluorescent, no P50 obtainable. On the procedure:
The DSB compounds were tested for their ability to bind to PHF in a competition-style assay.
If a test compound that also binds to PHFs with the same or greater affinity is added, it will displace the reference ligand and reduce the fluorescence signal. In the present assay, the reference compound is primulin, which was added at 1 μM. Test compounds were added at concentrations from 0.05 to 1 μM. The P50 for a test compound is defined as the concentration of compound that reduces the primulin signal to 50% of the control value. This value is, therefore, not an absolute affinity, but a relative affinity compared to the affinity of primulin.
PHFs were isolated from the brain of an Alzheimer's disease patient essentially as described by Wischik et al. (Neurobiology of Aging, Vol. 16, pp. 409-431, 1995). The IFII fraction was isolated by centrifugation on a sucrose gradient as described in the PhD thesis of C. M. Wischik, and was further extracted into an ‘abc sup’ as described by C. M. Wischik (Thesis “The structure and biochemistry of paired helical filaments in Alzheimer's disease” Part I and II; Cambridge University, 1989).
The assay for ligand activity was performed in 96 well plates (Nunc Cat. No. 236108). The test compound at the required concentration was mixed with PHFs, then primulin was added to give a final concentration of 1 μM and a total volume of 100 μl. The concentration of PHFs added was determined for each preparation to give an adequate fluorescence signal, and was typically in the range 1-2 μl/100 μl. The test compounds were typically dissolved in DMSO to give a final concentration of 10% DMSO in the assay. The control fluorescence, in the absence of PHFs, was also measured in the presence of 10% DMSO.
The fluorescence was measured in a Varian Carey Eclipse Fluorescence Spectrophotometer, with the […] wavelength at 480 nm. Excitation spectra were recorded and corrected by subtraction of the signal measured in the absence of PHFs, using the Varian software. The fluorescence signal at the peak […] wavelength of 420 nm was measured from the corrected spectra. The fluorescence values were plotted as a function of concentration of test compound, and the value for P50 measured from the graph.
As to `COc1ccc2nc(-c3ccc(/C=C/c4ccc(NC(=O)C(F)(F)F)cc4)cc3)sc2c1` [BEFA-06], the P50 entry is “fl”.

For the compound `COc1ccc2nc(-c3ccc(/C=C/c4ccc(F)cc4)cc3)sc2c1` [BEFA-10], the P50 entry was “fl”.

As to `Oc1ccc2nc(-c3ccc(/C=C/c4ccc(F)cc4)cc3)sc2c1` [BEHF-01], the P50 entry is listed as “fl”.

With `Oc1ccc2nc(-c3ccc(/C=C/c4ccc(NCC(F)(F)F)cc4)cc3)sc2c1` [BEHF-02], the P50 result was “fl”.

`Oc1ccc2nc(-c3ccc(/C=C/c4cc(OC(F)(F)F)ccc4O)cc3)sc2c1` [BEHF-06]: the P50 entry was “fl”.

As for `Oc1ccc(/C=C/c2ccc(-c3nc4ccc(O)cc4s3)cc2)c(C(F)(F)F)c1` [BEHF-07], the P50 result is given as “fl”.

Take `Cc1ccc2nc(-c3ccc(/C=C/c4ccc(N(C)C)cc4)cc3)sc2c1` [BEMA-08]: the P50 result was “fl”.

The experiment is the same for the next values; noted with them: concentration that reduces the signal of 1 μM primulin to 50% of control; relative affinity.
With `Cc1ccc2nc(-c3ccc(NC(=O)c4ccc(F)c(C(F)(F)F)c4)cc3)cn2c1` [AIPN-17], the P50 entry is on record as “no effect”.

Consider `Cc1ccc2nc(-c3ccc(/N=N/c4c(C(F)(F)F)cc(O)cc4C(F)(F)F)cc3)sc2c1` [BDF-08], for which the P50 result is recorded as “no effect”.

Consider `Oc1ccc(/N=N/c2ccc(-c3nc4cc(OC(F)(F)F)ccc4s3)cc2)cc1` [BDF-09], for which the P50 result was “no effect”.

As to `COc1ccc2nc(-c3ccc(/C=C/c4ccccc4C(F)(F)F)cc3)sc2c1` [BEFA-01], the P50 result is listed as “no effect”.

In the case of `COc1ccc2nc(-c3ccc(/C=C/c4cccc(C(F)(F)F)c4)cc3)sc2c1` [BEFA-02], the P50 entry is reported as “no effect”.

Regarding `COc1ccc2nc(-c3ccc(/C=C/c4ccc(C(F)(F)F)cc4)cc3)sc2c1` [BEFA-03], the P50 result is reported as “no effect”.

For the compound `COc1ccc2nc(-c3ccc(/C=C/c4ccc(OCC(F)(F)F)cc4)cc3)sc2c1` [BEFA-04], the P50 result is “no effect”.

`COc1ccc2nc(-c3ccc(/C=C/c4ccc(NCCCC(F)(F)F)cc4)cc3)sc2c1` [BEFA-09]: the P50 result is “no effect”.

Turning to `COc1ccc2nc(-c3ccc(/C=C/c4ccc(OCCF)cc4)cc3)sc2c1` [BEFA-12], the P50 entry is “no effect”.

As to `Oc1ccc2nc(-c3ccc(/C=C/c4ccc(NCCCC(F)(F)F)cc4)cc3)sc2c1` [BEHF-04], the P50 entry was “no effect”.

For the compound `Cc1ccc2nc(-c3ccc(/C=C/c4ccccc4)cc3)sc2c1` [BEMA-01], the P50 result is “no effect”.

For the compound `Cc1ccc2nc(-c3ccc(/C=C/c4ccccc4N)cc3)sc2c1` [BEMA-05], the P50 entry is recorded as “no effect”.

For `Cc1ccc2nc(-c3ccc(/C=C/c4cccc(N)c4)cc3)sc2c1` [BEMA-06], the P50 entry is “no effect”.

As for `Cc1ccc2nc(-c3ccc(/C=C/c4ccccc4O)cc3)sc2c1` [BEMA-09], the P50 entry is recorded as “no effect”.

On to `Cc1ccc2nc(-c3ccc(/C=C/c4ccc(O)cc4)cc3)sc2c1` [BEMA-11], for which the P50 result is reported as “no effect”.

In the case of `COc1cccc(/C=C/c2ccc(-c3nc4ccc(C)cc4s3)cc2)c1` [BEMA-12], the P50 result is “no effect”.

As for `COc1ccc2nc(-c3ccc(/C=C/c4ccc(N)cc4)cc3)sc2c1` [BEMOA-06], the P50 result is “no effect”.

The experiment is the same for the next values; noted with them: concentration that reduces the signal of 1 μM primulin to 50% of control; relative affinity; read-out: P50.
`Cc1ccc2nc(-c3ccc(NC(=O)c4ccc(O)cc4)cc3)cn2c1` [AIPN-14]: the IC50 was found to be 500 nM.

Turning to `Cc1ccc2nc(-c3ccc(NC(=O)c4cc(F)c(N(C)C)c(F)c4)cc3)cn2c1` [AIPN-16], the IC50 is above 1000 nM.

As to `Cc1ccc2nc(-c3ccc(NC(=O)c4ccc(Cl)nc4)cc3)cn2c1` [AIPN-18], the IC50 was above 1000 nM.

`CNc1ccc(C(=O)Nc2ccc(-c3cn4cc(C)ccc4n3)cc2)cc1F` [AIPN-20]: the IC50 came to 270 nM.

In the case of `CNc1c(F)cc(C(=O)Nc2ccc(-c3cn4cc(C)ccc4n3)cc2)cc1F` [AIPN-21], the IC50 was 460 nM.

In the case of `Cc1ccc2nc(-c3ccc(NC(=O)c4ccc(N(C)C)c(F)c4)cc3)cn2c1` [AIPN-22], the IC50 was determined as 760 nM.

Take `COc1ccc(C(=O)Nc2ccc(-c3cn4cc(C)ccc4n3)cc2)cc1F` [AIPN-23]: the IC50 was determined as 950 nM.

With `COc1c(F)cc(C(=O)Nc2ccc(-c3cn4cc(C)ccc4n3)cc2)cc1F` [AIPN-24], the IC50 was around 1000 nM.

Consider `COc1cc(F)c(C(=O)Nc2ccc(-c3cn4cc(C)ccc4n3)cc2)c(F)c1` [AIPN-25], for which the IC50 is above 1000 nM.

For `Cc1ccc2nc(-c3ccc(NC(=O)c4cc(F)c(O)c(F)c4)cc3)cn2c1` [AIPN-26], the IC50 was above 1000 nM.

Consider `Cc1ccc2nc(-c3ccc(NC(=O)c4ccc(O)c(F)c4)cc3)cn2c1` [AIPN-27], for which the IC50 is above 1000 nM.

For the compound `COc1ccc(C(=O)Nc2ccc(-c3cn4cc(C)ccc4n3)cc2)cc1C(F)(F)F` [AIPN-28], the IC50 was above 1000 nM.

As to `Cc1ccc2nc(-c3ccc(NC(=O)c4ccc(O)cc4F)cc3)cn2c1` [AIPN-29], the IC50 was 700 nM.

`COc1cc(NC(=O)c2ccc(F)c([N+](=O)[O-])c2)ccc1-c1nc2ccccc2s1` [AUB-01]: the IC50 is above 1000 nM.

With `COCCOCCOCCOc1cc(NC(=O)c2ccc(F)c([N+](=O)[O-])c2)ccc1-c1nc2ccccc2s1` [AUB-02], the IC50 is above 1000 nM.

For the compound `CN(C)CCOc1cc(NC(=O)c2ccc([N+](=O)[O-])c(C(F)(F)F)c2)ccc1-c1nc2ccccc2s1` [AUB-03], the IC50 was above 1000 nM.

Take `Cc1ccc2nc(-c3ccc(/N=N/c4ccc(O)cc4C(F)(F)F)cc3)sc2c1` [BDF-01]: the IC50 was determined as 290 nM.

As for `Cc1ccc2nc(-c3ccc(/N=N/c4cc(C(F)(F)F)ccc4O)cc3)sc2c1` [BDF-02], the IC50 was found to be 460 nM.

In the case of `COc1ccc2nc(-c3ccc(/N=N/c4ccc(O)cc4C(F)(F)F)cc3)sc2c1` [BDF-03], the IC50 worked out at 130 nM.

Take `Oc1ccc(/N=N/c2ccc(-c3nc4ccc(O)cc4s3)cc2)c(C(F)(F)F)c1` [BDF-04]: the IC50 amounted to 80 nM.

Consider `Oc1ccc(/N=N/c2ccc(-c3nc4cc(O)ccc4s3)cc2)c(C(F)(F)F)c1` [BDF-05], for which the IC50 is 90 nM.

With `CN(C)c1ccc2nc(-c3ccc(/N=N/c4ccc(O)cc4C(F)(F)F)cc3)sc2c1` [BDF-06], the IC50 amounted to 40 nM.

On to `Oc1ccc(/N=N/c2ccc(-c3nc4ccc(OC(F)(F)F)cc4s3)cc2)cc1` [BDF-07], for which the IC50 came to 720 nM.

As for `COc1ccc2sc(-c3ccc(/N=N/c4ccc(C(F)(F)F)cc4O)cc3)nc2c1` [BDF-10], the IC50 stood at 870 nM.

Consider `COc1ccc2sc(-c3ccc(/N=N/c4ccc(O)cc4C(F)(F)F)cc3)nc2c1` [BDF-11], for which the IC50 was determined as 600 nM.

Consider `COc1cccc2sc(-c3ccc(/N=N/c4ccc(C(F)(F)F)cc4O)cc3)nc12` [BDF-12], for which the IC50 was found to be 700 nM.

For `COc1cccc2sc(-c3ccc(/N=N/c4ccc(O)cc4C(F)(F)F)cc3)nc12` [BDF-13], the IC50 stood at 350 nM.

For `Oc1ccc(/N=N/c2ccc(-c3nc4ccc(O)cc4s3)c(O)c2)c(C(F)(F)F)c1` [BDF-14], the IC50 was determined as 20 nM.

For the compound `Oc1ccc(/N=N/c2ccc(-c3nc4ccc(O)cc4s3)c(O)c2)c(OCCCC(F)(F)F)c1` [BDF-15], the IC50 is 140 nM.

For `Oc1ccc(/N=N/c2ccc(-c3nc4ccc(O)cc4s3)cc2O)c(C(F)(F)F)c1` [BDF-16], the IC50 was 30 nM.

As to `Oc1ccc(/N=N/c2ccc(-c3nc4ccc(O)cc4s3)cc2O)c(OC(F)(F)F)c1` [BDF-17], the IC50 was 30 nM.

As for `Cc1ccc2nc(-c3ccc(/C=C/c4cccc(O)c4)cc3)sc2c1` [BEMA-10], the IC50 is around 1200 nM.

On to `COc1ccc2nc(-c3ccc(/C=C/c4ccc([N+](=O)[O-])cc4)cc3)sc2c1` [BEMOA-03], for which the IC50 came out at 40 nM.

Regarding `COc1ccc2nc(-c3ccc(/C=C/c4cccc(N)c4)cc3)sc2c1` [BEMOA-05], the IC50 amounted to 280 nM.

For `COc1ccc2nc(-c3ccc(/C=C/c4ccc(O)c([N+](=O)[O-])c4)cc3)sc2c1` [BEMOA-09], the IC50 is 30 nM.

`Cc1ccc2nc(-c3ccc(/N=N/c4ccc(N(C)C)cc4)cc3)cn2c1` [DPN-001]: the IC50 amounted to 30 nM.

In the case of `Cc1ccc2nc(-c3ccc(/C=C/c4ccc([N+](=O)[O-])cc4)cc3)cn2c1` [IEPN-01], the IC50 was determined as 50 nM.
